Measurements as given in patent US7452887B2, “Quinoline- and isoquinoline-based compounds exhibiting ATP-utilizing enzyme inhibitory activity, and compositions, and uses thereof” (Amphora Discovery Corporation, priority 2004, dated 2008).

Key:
Experiment in all cases: HTS ATP-utilizing enzyme assay, off-chip mobility-shift (Caliper HTS 250)
Assay type in all cases: biochemical
Settings in all cases: test compound 10 μM, kinase listed = active (greater than six-sigma from the mean activity of inactive compounds)
MAPKAPK2 = MAPKAPK2 (Homo sapiens, UniProt P49137)
In short: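 Phosphorylation of a peptide substrate was quantified by Caliper mobility-shift separation of substrate and product after 2.5 h at 20-22 °C, with compounds tested at 10 μM. Inhibition was normalized to EDTA-quenched (100%) and DMSO (0%) controls; six-sigma thresholds flagged actives.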

NEK2 = target: T1, NEK2 (Homo sapiens, UniProt P51955)
T1 sequence (P51955 1-445): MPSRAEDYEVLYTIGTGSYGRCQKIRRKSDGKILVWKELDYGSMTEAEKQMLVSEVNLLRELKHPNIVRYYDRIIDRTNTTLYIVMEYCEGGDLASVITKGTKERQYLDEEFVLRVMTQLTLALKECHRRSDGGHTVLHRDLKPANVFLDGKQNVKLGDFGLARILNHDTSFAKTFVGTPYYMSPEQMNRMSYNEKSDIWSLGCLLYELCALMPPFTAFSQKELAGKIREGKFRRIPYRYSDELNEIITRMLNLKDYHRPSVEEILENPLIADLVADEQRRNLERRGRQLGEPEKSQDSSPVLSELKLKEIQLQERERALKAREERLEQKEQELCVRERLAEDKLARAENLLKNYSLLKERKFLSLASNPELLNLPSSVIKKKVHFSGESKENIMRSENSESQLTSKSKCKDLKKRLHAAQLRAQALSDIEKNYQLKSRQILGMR
From the text: (§1) The following procedures describe the reagent and plate preparation for a HTS of an ATP-utilizing enzyme, such as a protein kinase, run in an off-chip mobility-shift assay format. The following provides an HTS protocol for running a protein kinase HTS screen on a Caliper HTS 250 microfluidics system. The following parameters are dependent on the protein kinase used and can be determined by one skilled in the art as part of a typical assay development process. For example, the peptide substrate used can be identified from the current literature, by screening a peptide library of potential protein kinase substrates, or by other applicable means accepted in the field.
(§2) The following table provides typical screen assay parameters appropriate for a Caliper HTS 250 microfluidics system.
(§3) The reagents and buffers listed in the following table are generally applicable for developing and running an HTS screen on a human protein kinase using the Caliper HTS 250 system.
(§4) The following reagents were prepared using the previously described buffers.
(§5) A 2× Master Buffer solution was prepared by combining 200 mL of 1 M HEPES, pH 7.5, 2 mL of 10% Triton X-100, 20 mL of 10% BSA, and 778 mL of H2O.
(§6) A 2.5× Substrate Buffer solution was prepared by combining 177.408 mL of 2× Master Buffer, 0.887 mL of 1 mM peptide-X, and 176.521 mL of H2O.
(§7) A 1.55× Termination Buffer solution was prepared by combining 762.05 mL of 2× Master Buffer, 95.1 mL of 0.5 M EDTA, and 666.94 mL of H2O.
(§8) A TCB Buffer solution was prepared by combining 125 mL of 2× Master Buffer, 10 mL of 0.5 M EDTA, 6.25 mL of 4% coating reagent, 1.01 mL of 100% DMSO, and 107.74 mL H2O.
(§9) A Dye Trough solution was prepared by combining 0.5 μL of peptide-X, and 2,999.5 μL of IX Master Buffer.
(§10) A 1.06× Assay Buffer solution was prepared by combining 205.15 mL of 2× Master Buffer, and 181.92 mL of H2O.
(§11) Assays to determine the kinase inhibitory activity of compounds of the present disclosure were performed using a Caliper HTS 250 microfluidics device, Greiner U-bottom assay plates, a Multidrop for transfer of reagents, and Biomek FX (AMNCBM03) software. Initially, 2.4 μL of a 1 mM solution of a test compound in 100% DMSO was added to a well of the Greiner U-bottom plate. A single Greiner U-bottom plate having 24×16 wells could include multiple test compounds. Next, […] of 1.06× Assay Buffer was added to each well of the assay plate. Using the Biomek FX, 10 μL of 0.5 M EDTA was added by the span-8 to wells, indicated as 100% Control and 2.4 μL of 100% DMSO was added by the span-8 to wells, indicated as 0% Control. Using the Multidrop, 10 μL of 2.5× Enzyme Buffer, followed by 10 μL of 2.5× Substrate Buffer was added to each well of the assay plate. The total reaction volume in each well was 25 μL, and the concentration of the test compound was 10 μM. The assay plate was incubated for 2.5 hrs at 20° C. to 22° C. After the incubation period, using the Multidrop, 45 μL of 1.55× Termination Buffer was added to each well of the assay plate to stop the reaction. The inhibition of the ATP-utilizing enzyme, such as a particular protein kinase, was determined by measuring the ratio of the peptide substrate to phosphorylated product for each well of the assay plate using the Caliper HTS 250 system.
(§12) The use of six-sigma statistical limits represents a conservative method for declaring potential hits among targets. The six-sigma activity, as well as the mean population activity, can be different for each target enzyme. This method has an expected false positive rate, from an in-control measurement process, of one in one million.

PRAK = target: T2, PRAK (Homo sapiens, UniProt Q8IW41)
T2 sequence (Q8IW41 1-473): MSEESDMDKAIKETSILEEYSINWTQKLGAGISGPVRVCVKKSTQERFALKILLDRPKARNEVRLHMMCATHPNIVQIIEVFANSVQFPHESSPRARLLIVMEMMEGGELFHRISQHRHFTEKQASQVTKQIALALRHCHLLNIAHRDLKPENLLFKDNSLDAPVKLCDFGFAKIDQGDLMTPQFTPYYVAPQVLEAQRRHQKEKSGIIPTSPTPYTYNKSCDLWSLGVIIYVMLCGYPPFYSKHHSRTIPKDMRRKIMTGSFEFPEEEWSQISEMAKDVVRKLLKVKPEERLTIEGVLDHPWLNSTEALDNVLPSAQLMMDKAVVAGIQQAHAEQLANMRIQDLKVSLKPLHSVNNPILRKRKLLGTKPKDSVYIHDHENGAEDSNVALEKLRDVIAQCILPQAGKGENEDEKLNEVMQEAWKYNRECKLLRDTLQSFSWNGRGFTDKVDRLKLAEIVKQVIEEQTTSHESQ
From the text: as §1, §2, §3, §4, §5, §6, §7, §8, §9, §10, §11, §12

C-TAK1 = C-TAK1 (Homo sapiens, UniProt P27448)
From the text: as §1, §2, §3, §4, §5, §6, §7, §8, §9, §10, §11, §12

Chain of MAPKAPK2 (P49137 whole entry): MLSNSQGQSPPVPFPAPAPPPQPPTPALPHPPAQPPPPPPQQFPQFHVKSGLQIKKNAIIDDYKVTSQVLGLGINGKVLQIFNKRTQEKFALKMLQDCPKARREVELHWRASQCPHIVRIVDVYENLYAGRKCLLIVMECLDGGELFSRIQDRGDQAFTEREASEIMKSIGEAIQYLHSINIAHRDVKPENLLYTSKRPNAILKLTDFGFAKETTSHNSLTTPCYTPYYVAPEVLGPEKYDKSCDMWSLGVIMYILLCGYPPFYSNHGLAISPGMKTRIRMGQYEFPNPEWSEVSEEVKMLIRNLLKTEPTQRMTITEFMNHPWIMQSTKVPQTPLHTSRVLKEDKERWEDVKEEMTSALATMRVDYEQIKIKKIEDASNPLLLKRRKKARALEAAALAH
Chain of C-TAK1 (P27448 whole entry): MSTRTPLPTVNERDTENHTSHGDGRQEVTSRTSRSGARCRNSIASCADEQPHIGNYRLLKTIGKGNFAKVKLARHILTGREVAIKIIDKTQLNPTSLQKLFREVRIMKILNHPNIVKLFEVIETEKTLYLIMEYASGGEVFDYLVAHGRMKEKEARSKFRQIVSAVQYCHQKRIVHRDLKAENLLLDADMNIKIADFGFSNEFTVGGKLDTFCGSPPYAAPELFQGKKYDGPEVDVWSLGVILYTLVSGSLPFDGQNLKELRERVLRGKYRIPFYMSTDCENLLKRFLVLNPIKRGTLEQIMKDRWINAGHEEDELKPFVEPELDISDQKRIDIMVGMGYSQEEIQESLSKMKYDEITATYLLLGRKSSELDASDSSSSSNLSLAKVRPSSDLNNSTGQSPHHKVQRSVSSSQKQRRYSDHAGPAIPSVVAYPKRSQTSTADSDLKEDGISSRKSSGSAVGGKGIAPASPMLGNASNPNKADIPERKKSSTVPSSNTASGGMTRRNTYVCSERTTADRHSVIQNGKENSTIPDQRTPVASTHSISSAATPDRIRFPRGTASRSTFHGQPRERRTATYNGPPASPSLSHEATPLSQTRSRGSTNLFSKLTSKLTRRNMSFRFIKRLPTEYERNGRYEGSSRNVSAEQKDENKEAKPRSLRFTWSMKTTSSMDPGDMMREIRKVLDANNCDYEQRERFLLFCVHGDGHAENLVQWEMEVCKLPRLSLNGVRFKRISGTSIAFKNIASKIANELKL

| SMILES | Activity (MAPKAPK2) | Activity (NEK2) | Activity (PRAK) | Activity (C-TAK1) |
| --- | --- | --- | --- | --- |
| CN1CCN(c2ccc(Nc3ccnc4ccc(-c5ccc(Cl)cc5Cl)cc34)cc2)CC1 [6-(2,4-dichlorophenyl)-N-(4-(4-methylpiperazin-1-yl)phenyl)quinolin-4-amine] | MAPKAPK2 | NEK2 | PRAK | – |
| CCCCCc1ccc(-c2ccc3nccc(Nc4ccc(N5CCN(C)CC5)cc4)c3c2)cc1 [N-(4-(4-methylpiperazin-1-yl)phenyl)-6-(4-pentylphenyl)quinolin-4-amine] | – | – | PRAK | C-TAK1 |
| CC(C)c1ccc(-c2ccc3nccc(Nc4ccc(N5CCN(C)CC5)cc4)c3c2)cc1 [6-(4-isopropylphenyl)-N-(4-(4-methylpiperazin-1-yl)phenyl)quinolin-4-amine] | MAPKAPK2 | NEK2 | PRAK | – |
| CCc1ccccc1-c1ccc2nccc(Nc3ccc(N4CCN(C)CC4)cc3)c2c1 [6-(2-ethylphenyl)-N-(4-(4-methylpiperazin-1-yl)phenyl)quinolin-4-amine] | MAPKAPK2 | NEK2 | PRAK | – |
| CN1CCN(c2ccc(Nc3ccnc4ccc(-c5cccc(Cl)c5)cc34)cc2)CC1 [6-(3-chlorophenyl)-N-(4-(4-methylpiperazin-1-yl)phenyl)quinolin-4-amine] | MAPKAPK2 | NEK2 | PRAK | – |
| Cc1cccc(-c2ccc3nccc(Nc4ccc(N5CCN(C)CC5)cc4)c3c2)c1C [6-(2,3-dimethylphenyl)-N-(4-(4-methylpiperazin-1-yl)phenyl)quinolin-4-amine] | MAPKAPK2 | NEK2 | PRAK | – |
| COc1ccc(-c2ccc3nccc(Nc4ccc(N5CCN(C)CC5)cc4)c3c2)c(OC)c1 [6-(2,4-dimethoxyphenyl)-N-(4-(4-methylpiperazin-1-yl)phenyl)quinolin-4-amine] | MAPKAPK2 | NEK2 | PRAK | – |
| COc1ccccc1-c1ccc2nccc(Nc3ccc(N4CCN(C)CC4)cc3)c2c1 [6-(2-methoxyphenyl)-N-(4-(4-methylpiperazin-1-yl)phenyl)quinolin-4-amine] | MAPKAPK2 | NEK2 | PRAK | – |
| Cc1ccc(-c2ccc3nccc(Nc4ccc(N5CCN(C)CC5)cc4)c3c2)cc1C [6-(3,4-dimethylphenyl)-N-(4-(4-methylpiperazin-1-yl)phenyl)quinolin-4-amine] | MAPKAPK2 | NEK2 | PRAK | – |
| CN1CCN(c2ccc(Nc3ccnc4ccc(-c5ccc(F)cc5F)cc34)cc2)CC1 [6-(2,4-difluorophenyl)-N-(4-(4-methylpiperazin-1-yl)phenyl)quinolin-4-amine] | MAPKAPK2 | NEK2 | PRAK | – |
| CN1CCN(c2ccc(Nc3ccnc4ccc(-c5ccc(C6CCCCC6)cc5)cc34)cc2)CC1 [6-(4-cyclohexylphenyl)-N-(4-(4-methylpiperazin-1-yl)phenyl)quinolin-4-amine] | MAPKAPK2 | – | – | C-TAK1 |
| CN1CCN(c2ccc(Nc3ccnc4ccc(-c5ccc(C#N)cc5)cc34)cc2)CC1 [4-(4-(4-(4-methylpiperazin-1-yl)phenylamino)quinolin-6-yl)benzonitrile] | MAPKAPK2 | NEK2 | PRAK | – |
| N#CCCN1CCN(c2ccc(Nc3ccnc4ccc(-c5ccc(C#N)cc5)cc34)cc2)CC1 [4-(4-(4-(4-(2-cyanoethyl)piperazin-1-yl)phenylamino)quinolin-6-yl)benzonitrile] | MAPKAPK2 | – | PRAK | – |
| CN1CCN(c2ccc(Nc3ccnc4ccc(-c5ccc(Cl)cc5)cc34)cc2)CC1 [6-(4-chlorophenyl)-N-(4-(4-methylpiperazin-1-yl)phenyl)quinolin-4-amine] | MAPKAPK2 | – | PRAK | – |
| CN1CCN(c2ccc(Nc3ccnc4ccc(-c5c(F)cccc5F)cc34)cc2)CC1 [6-(2,6-difluorophenyl)-N-(4-(4-methylpiperazin-1-yl)phenyl)quinolin-4-amine] | MAPKAPK2 | – | PRAK | – |
| Cc1cccc(-c2ccc3nccc(Nc4ccc(N5CCN(C)CC5)cc4)c3c2)c1 [N-(4-(4-methylpiperazin-1-yl)phenyl)-6-m-tolylquinolin-4-amine] | MAPKAPK2 | NEK2 | PRAK | – |
| CCCN1CCN(c2ccc(Nc3ccnc4ccc(-c5ccccc5)cc34)cc2)CC1 [6-phenyl-N-(4-(4-propylpiperazin-1-yl)phenyl)quinolin-4-amine] | MAPKAPK2 | – | PRAK | – |
| Cc1cc(F)ccc1-c1ccc2nccc(Nc3ccc(N4CCN(C)CC4)cc3)c2c1 [6-(4-fluoro-2-methylphenyl)-N-(4-(4-methylpiperazin-1-yl)phenyl)quinolin-4-amine] | MAPKAPK2 | – | PRAK | – |
| CN1CCN(c2ccc(Nc3ccnc4ccc(-c5ccc(F)c(F)c5)cc34)cc2)CC1 [6-(3,4-difluorophenyl)-N-(4-(4-methylpiperazin-1-yl)phenyl)quinolin-4-amine] | MAPKAPK2 | – | PRAK | – |
| CN1CCN(c2ccc(Nc3ccnc4ccc(-c5cc(F)ccc5F)cc34)cc2)CC1 [6-(2,5-difluorophenyl)-N-(4-(4-methylpiperazin-1-yl)phenyl)quinolin-4-amine] | MAPKAPK2 | NEK2 | PRAK | – |
| Cc1ccc(-c2ccc3nccc(Nc4ccc(N5CCN(C)CC5)cc4)c3c2)cc1 [N-(4-(4-methylpiperazin-1-yl)phenyl)-6-p-tolylquinolin-4-amine] | MAPKAPK2 | NEK2 | PRAK | – |
